Earlier results, collected in patent US20060106004A1, “Unique methods and formulations of bio-identical sex steroids for the treatment of pathophysiologic aberrations of menopause” (priority 2004, published 2006).

Columns and labels:
mammary carcinoma = conditions: following radiation or carcinogenesis
metastatic breast cancer = conditions: doses from 2.5 to 15 mg/day
uterus = conditions: ovariectomized rats

## C[C@]12CC[C@@H]3c4ccc(O)cc4CC[C@H]3[C@@H]1C[C@@H](O)[C@@H]2O [Estriol, estriol]
Mammary carcinoma
  reduction of mammary carcinoma rates: 80%
Metastatic breast cancer
  proportion of women with arrested growth and remission of metastatic lesions: Over ⅓
uterus
  stimulation of uterine weights: does not significantly stimulate uterine weights
